# How the values were obtained:
# Type in all cases: physicochemical
# [1] = Saturation solubility, shaken 18 hours at 25° C., filtered, HPLC; settings: thermodynamic from solid, 40 mM Citric acid
# Experimental: To each of the various solutions shown in Table 5, compound A1 hydrochloride was added in an amount exceeding the saturation concentration, and the mixture was shaken for 18 hours at 25° C.
# [2] = Solubility by eye observation with stepwise addition of solution; settings: thermodynamic from solid
# Experimental: (§1) Each of the solutions (0.1 mL) shown in Table 1 was added to compound A1 hydrochloride (about 2 mg), and solubility was confirmed with eye observation. When insoluble materials were recognized, the solution (0.1 mL) was further added, and solubility was confirmed by eye observation in the same manner. When insoluble materials were still recognized, the solution was thereafter added in the amounts of 0.05 mL, 0.15 mL, 0.4 mL, 0.4 mL, 0.4 mL and 0.4 mL, respectively in this order, and solubility was confirmed by eye observation. The concentration of the compound A1 hydrochloride determined from the total amount of the solution added up to the time point at which insoluble materials were not recognized, was taken as the solubility.
# as §1, with “Table 2” for “Table 1”
# as §1, with “Table 3” for “Table 1”
# as §1, with “Table 4” for “Table 1”
# [3] = Saturation solubility, shaken 18 hours at 5° C., filtered, HPLC; settings: thermodynamic from solid, 40 mM Citric acid, NaOH, as free form
# Experimental: To each of the various solutions shown in Table 6, compound A1 hydrochloride was added in an amount exceeding the saturation concentration, and the mixture was shaken for 18 hours at 5° C.
smiles,measurement,setting,value
"CCS(=O)(=O)c1cccc(-c2cc(C(=O)NC3CCN(C)CC3)c(C)c3[nH]c4ncc(C)cc4c23)c1.Cl [compound A1 hydrochloride, 5-(3-(ethylsulfonyl)phenyl)-3,8-dimethyl-N-(1-methylpiperidin-4-yl)-9H-pyrido[2,3-b]indole-7-carboxamide hydrochloride]",solubility at 18 h,"[1]; aqueous with cosolvent or surfactant or cyclodextrin, 5 w/v % Sulfobutyl ether-β-cyclodextrin sodium salt (Captisol, research grade), HCl, pH 2.5, as free form",29.2 mg/mL
same,solubility at 18 h,"[1]; aqueous with cosolvent or surfactant or cyclodextrin, 5 w/v % Sulfobutyl ether-β-cyclodextrin sodium salt (Captisol, research grade), NaOH, pH 4, as free form",24.5 mg/mL
same,solubility at 18 h,"[1]; aqueous with cosolvent or surfactant or cyclodextrin, 5 w/v % Sulfobutyl ether-β-cyclodextrin sodium salt (Captisol, research grade), NaOH, pH 5, as free form",22.9 mg/mL
same,solubility at 18 h,"[1]; citric acid solution in water for injection, aqueous buffer, water for injection, HCl, pH 2.5, as compound A1 (free form)",8 mg/mL
same,solubility at 18 h,"[1]; citric acid solution in water for injection, aqueous buffer, water for injection, NaOH, pH 4, as free form",0.3 mg/mL
same,solubility at 18 h,"[1]; citric acid solution in water for injection, aqueous buffer, water for injection, NaOH, pH 5, as free form",0.1 mg/mL
same,solubility,"[2]; 5 w/v % D-mannitol in water for injection, saline or isotonic",~1100 µg/mL
same,solubility,"[2]; 5 w/v % D-sorbitol in water for injection, saline or isotonic",~1300 µg/mL
same,solubility,"[2]; 5 w/v % glucose in water for injection, saline or isotonic",~1300 µg/mL
same,solubility,"[2]; 10 w/v % Dextran 40 in water for injection, aqueous with cosolvent or surfactant or cyclodextrin",< 1300 µg/mL
same,solubility,"[2]; 10 w/v % Polysorbate 20 in water for injection, aqueous with cosolvent or surfactant or cyclodextrin",~1800 µg/mL
same,solubility,"[2]; 10 w/v % Polysorbate 80 in water for injection, aqueous with cosolvent or surfactant or cyclodextrin",~2200 µg/mL
same,solubility,"[2]; 10 w/v % maltose in water for injection, saline or isotonic",~1400 µg/mL
same,solubility,"[2]; 10 w/v % sucrose in water for injection, saline or isotonic",~1200 µg/mL
same,solubility,"[2]; 30 w/v % maltosyl-β-cyclodextrin in water for injection, aqueous with cosolvent or surfactant or cyclodextrin",~10800 µg/mL
same,solubility,"[2]; aqueous with cosolvent or surfactant or cyclodextrin, 30 w/v % 2-Hydroxypropyl-β-cyclodextrin in water for injection",~10400 µg/mL
same,solubility,"[2]; aqueous with cosolvent or surfactant or cyclodextrin, 30 w/v % Sulfobutyl ether-β-cyclodextrin sodium salt (Captisol, clinical grade) in water for injection",~9200 µg/mL
same,solubility,"[2]; citric acid buffer solution, pH 2, aqueous buffer, 100 mM Citric acid buffer solution pH 2",~2100 µg/mL
same,solubility,"[2]; citric acid buffer solution, pH 3, aqueous buffer, 100 mM Citric acid buffer solution pH 3",~1000 µg/mL
same,solubility,"[2]; citric acid buffer solution, pH 4, aqueous buffer, 100 mM Citric acid buffer solution pH 4",< 1300 µg/mL
same,solubility,"[2]; citric acid buffer solution, pH 5, aqueous buffer, 100 mM Citric acid buffer solution pH 5",< 1300 µg/mL
same,solubility,"[2]; citric acid buffer solution, pH 7, aqueous buffer, 100 mM Citric acid buffer solution pH 7",< 1200 µg/mL
same,solubility,"[2]; citric acid buffer solution, pH 9, aqueous buffer, 100 mM Citric acid buffer solution pH 9",< 1200 µg/mL
same,solubility,"[2]; citric acid buffer solutions, aqueous buffer, citric acid buffer solutions of Table 1",< 8000 µg/mL
same,solubility,"[2]; cyclodextrin derivative solutions, aqueous with cosolvent or surfactant or cyclodextrin, all cyclodextrin derivative solutions shown in Table 4",≥ 8000 µg/mL
same,solubility,"[2]; ethanol, organic solvent or mixture, 100 w/v % Ethanol",< 1200 µg/mL
same,solubility,"[2]; polyethylene glycol 300, organic solvent or mixture, 100 w/v % Polyethylene glycol 300",< 1100 µg/mL
same,solubility,"[2]; polyethylene glycol 400, organic solvent or mixture, 100 w/v % Polyethylene glycol 400",< 1300 µg/mL
same,solubility,"[2]; solutions of solubilizers, aqueous with cosolvent or surfactant or cyclodextrin, solutions of solubilizers in Table 3",< 8000 µg/mL
same,solubility,"[2]; solutions of sugars, saline or isotonic, solutions of sugars in Table 2",< 8000 µg/mL
same,solubility,"[2]; soybean oil, oil or lipid, 100 w/v % Soybean oil",< 1200 µg/mL
same,solubility,"[2]; water for injection, water",< 1200 µg/mL
same,solubility at 18 h,"[3]; citric acid solution in water for injection, pH 4, aqueous buffer, water for injection",0.1 mg/mL
same,solubility at 18 h,"[3]; pH 4, aqueous with cosolvent or surfactant or cyclodextrin, 2.5 w/v % Sulfobutyl ether-β-cyclodextrin sodium salt",13 mg/mL
same,solubility at 18 h,"[3]; pH 4, aqueous with cosolvent or surfactant or cyclodextrin, 5 w/v % Sulfobutyl ether-β-cyclodextrin sodium salt",20.9 mg/mL
same,solubility at 18 h,"[3]; pH 4, aqueous with cosolvent or surfactant or cyclodextrin, 7.5 w/v % Sulfobutyl ether-β-cyclodextrin sodium salt",27.6 mg/mL
same,solubility at 18 h,"[3]; pH 4, aqueous with cosolvent or surfactant or cyclodextrin, 10 w/v % Sulfobutyl ether-β-cyclodextrin sodium salt",32.8 mg/mL
same,solubility at 18 h,"[3]; pH 4, aqueous with cosolvent or surfactant or cyclodextrin, 12 w/v % Sulfobutyl ether-β-cyclodextrin sodium salt",35.4 mg/mL
same,solubility at 18 h,"[3]; pH 4, aqueous with cosolvent or surfactant or cyclodextrin, 20 w/v % Sulfobutyl ether-β-cyclodextrin sodium salt",43.6 mg/mL
same,solubility at 18 h,"[3]; pH 4, aqueous with cosolvent or surfactant or cyclodextrin, 30 w/v % Sulfobutyl ether-β-cyclodextrin sodium salt",49.9 mg/mL

# Reference: US20100331357A1, “PHARMACEUTICAL COMPOSITION” (TAKEDA PHARMACEUTICAL COMPANY LIMITED, priority 2008, published 2010)
